Experimental data as given in publication PMC8377444 (Pharmacology Research & Perspectives, 2021).

What was measured:
[1] = Treatment-emergent adverse events, single ascending dose; format: in vivo, human
[2] = Safety and tolerability assessments, whole study; format: in vivo, human
TLR7/8 [3] = conditions: in vitro and ex vivo; cited from earlier work
TLR7/8 [4] = assay: Ex vivo R848-stimulated whole blood cytokine release immunoassay, IL-6 secretion; format: in vivo, human
mouse models of SLE = conditions: cited from earlier work
[5] = Plasma pharmacokinetics, single 25 mg dose fed / food effect; format: in vivo, human; conditions: high-fat, high-calorie meal
[6] = Safety under fed conditions; format: in vivo, human; conditions: single dose 25 mg

**Q.** What does the source list for `N#Cc1ccc(N2C[C@H](N)C[C@H](C(F)(F)F)C2)c2cccnc12` [enpatoran]?
**A.** Study intervention-related flatulence ([1]; SAD cohorts): three; TEAE: Flatulence ([1]; single dose 3 mg, n = 6): 4 (66.7) Number (%) of participants; Dose dependence of TEAEs ([2]; Parts A and B): No dose‐dependent TEAEs were observed; Severity of TEAEs ([2]; Parts A and B, all TEAEs): mild to moderate; Tolerability ([2]; single and multiple oral doses up to 200 mg, fasting or fed): well tolerated; Deaths ([2]; whole study): no deaths; Discontinuations due to TEAEs ([2]; whole study): no discontinuations due to TEAEs; Serious AEs ([2]; whole study): No serious AEs occurred; Changes in laboratory values, vital signs or ECGs ([2]; whole study period): No clinically relevant changes; Activation of TLR7/8 (TLR7/8 [3]): inhibit the activation of TLR7/8; Inhibition of IL-6 secretion maintained throughout the dosing interval (TLR7/8 [4]; 200 mg QD, 25 mg BID and 50 mg BID): At least 60%; Dose with maximum inhibition of ex vivo-stimulated IL-6 secretion (TLR7/8 [4]; doses up to 200 mg): 200 mg; Time of peak TLR7/8 target modulation (TLR7/8 [4]; post-dose): 2 h; Disease activity in mouse models of SLE (mouse models of SLE): suppress disease activity; Sustained inhibition of IL-6 (mouse models of SLE; lowest efficacious dose in mouse models of SLE): 60%; Decrease in CL/F, fed versus fasting [5]: approximately 25%; TEAEs reported during Part C [6]: no TEAEs were reported
